Measured values reported in patent US7875618B2, “Substituted imidazo[1,5-a]quinoxalines useful as inhibitors of phosphodiesterase 10 for the treatment of neurological and other disorders” (Wyeth, priority 2007, dated 2011).

Legend:
PDE10 from pig striatum = PDE10 from pig striatum (Sus scrofa, UniProt A0A287B941); test: Inhibition of PDE10 from pig striatum ([3H]-cAMP SPA, Methods A and B); assay type: biochemical; conditions: PDE10 pig
Protocol: Striatum from male Wistar rats (180-200 g), male hybrid pigs (150 kg) and male guinea pigs (CRL (HA), 500 g) respectively were collected and frozen at −70° C. At the day of preparation 0.5 g striatum was homogenised in 10 ml 50 mM Tris/Mg-buffer at 4° C. and centrifuged for one hour at 100000 g. The supernatant is called the cytosolic fraction and was removed and stored on ice. The pellet was resuspended in the same buffer, but containing 1% Triton and incubated for 45 min at 4° C. Both fractions were independently applied onto a 5 ml Hi Trap™ QHP column at the Äkta-FPLC. After washing the columns the bound PDE protein was eluted with an increasing sodium chloride gradient (0 mM-500 mM sodium chloride) in 50 mM Tris/Mg-buffer at 4° C. for the cytosolic fraction and in the presence of 1% Triton for the membrane fraction. […] The fractions with PDE10-activity were pooled and frozen in aliquots until use at −20° C. PDE10 activity was determined in a one step procedure in microtiter plates. […] Nonspecific activity was tested without the enzyme. The reaction was initiated by addition of the substrate solution and was carried out at 37° C. for 30 minutes. Enzymatic activity was stopped by addition of 25 μl YSi-SPA-beads (Amersham-Pharmacia). One hour later the mixture was measured in a liquid scintillation counter for microtiter plates (Microbeta Trilux). To pipette the incubation mixture a robot Biomek (Fa. Beckman) is used. […] For determination of IC50 values the Hill-plot, 2-parameter-model, was used. […] Striatum from male hybrid pigs (150 kg) were collected and frozen at −70° C. At the day of preparation 0.5 g striatum was homogenised in 10 ml 50 mM Tris/Mg-buffer at 4° C. and centrifuged for one hour at 100000 g. The supernatant was removed and the pellet was resuspended in the same buffer, but containing 1% Triton and incubated for 45 min at 4° C. The membrane fraction was applied onto a 5 ml Hi Trap™ QHP column at the Äkta-FPLC. After washing the column the bound PDE protein was eluted with an increasing sodium chloride gradient (0 mM-500 mM sodium chloride) in 50 mM Tris/Mg-buffer at 4° C. in the presence of 1% Triton. […] The fractions with PDE10-activity were pooled and frozen in aliquots until use at −20° C. PDE10 activity was determined in a one step procedure in microtiterplates. […] Nonspecific activity was tested without the enzyme. The reaction was initiated by addition of the substrate solution and was carried out at 37° C. for 30 minutes. Enzymatic activity was stopped by addition of 25 μl YSi-SPA-beads (Amersham-Pharmacia). One hour later the mixture was measured in a liquid scintillation counter for microtiterplates (Microbeta Trilux). To pipette the incubation mixture a robot Biomek (Fa. Beckman) is used. […] For determination of IC50 values the Hill-plot, 2-parameter-model, was used.

human recombinant PDE10A = target: T1, human recombinant PDE10A (Homo sapiens, UniProt Q9Y233); test: Inhibition of human recombinant PDE10A ([3H]-cAMP SPA, Method B); assay type: biochemical; conditions: read-out: PDE10 inhibition IC50 [nM] PDE10A human
T1 construct: made in house; host or cells: SF21 insect cells (baculovirus)
T1 sequence (Q9Y233 1-779 isoform Q9Y233-1): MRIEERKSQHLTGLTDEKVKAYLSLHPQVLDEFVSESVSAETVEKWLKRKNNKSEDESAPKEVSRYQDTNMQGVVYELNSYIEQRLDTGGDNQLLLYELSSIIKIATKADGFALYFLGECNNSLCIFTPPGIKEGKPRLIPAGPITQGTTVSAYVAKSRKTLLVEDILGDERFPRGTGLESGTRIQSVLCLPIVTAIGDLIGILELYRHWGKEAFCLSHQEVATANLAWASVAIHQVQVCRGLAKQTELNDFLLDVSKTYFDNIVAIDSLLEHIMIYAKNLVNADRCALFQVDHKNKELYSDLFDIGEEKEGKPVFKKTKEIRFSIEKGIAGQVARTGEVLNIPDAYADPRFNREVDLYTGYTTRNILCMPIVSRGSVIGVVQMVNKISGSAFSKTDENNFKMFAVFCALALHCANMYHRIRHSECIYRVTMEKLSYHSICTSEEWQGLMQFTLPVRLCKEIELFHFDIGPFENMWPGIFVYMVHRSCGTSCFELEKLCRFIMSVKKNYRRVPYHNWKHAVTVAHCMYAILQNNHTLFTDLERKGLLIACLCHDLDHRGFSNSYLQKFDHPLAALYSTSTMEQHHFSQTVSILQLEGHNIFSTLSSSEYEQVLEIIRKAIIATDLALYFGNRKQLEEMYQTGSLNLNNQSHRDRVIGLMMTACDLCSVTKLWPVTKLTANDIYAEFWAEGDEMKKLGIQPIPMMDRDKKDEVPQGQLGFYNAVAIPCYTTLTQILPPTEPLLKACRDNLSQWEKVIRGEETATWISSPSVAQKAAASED

IC50 (PDE10 from pig striatum) [nM]	melting point [°C]	IC50 (human recombinant PDE10A) [nM]	SMILES
10 to 100	157 to 160		CCc1nc(C)c2c(Cl)nc3ccc(F)cc3n12 [Intermediate B5]
10 to 100	105 to 108		CCCc1nc(C)c2c(Cl)nc3ccc(N4CCCCC4)cc3n12 [Intermediate B10]
10 to 100	133 to 135		CCCc1nc(C)c2c(Cl)nc3ccc(F)cc3n12 [Intermediate B6, 4-Chloro-8-fluoro-3-methyl-1-propyl-imidazo(1,5-a)quinoxaline]
≥ 100	244 to 248		Cc1nc(C2CCCCC2)n2c1c(Cl)nc1ccc(Cl)cc12 [Intermediate B9, 4,8-Dichloro-1-cyclohexyl-3-methyl-imidazo(1,5-a)quinoxaline]
10 to 100	99 to 101		CCCc1nc(C)c2c(Cl)nc3ccccc3n12 [Intermediate B4, 4-Chloro-3-methyl-1-propyl-imidazo(1,5-a)quinoxaline]

The next lines start with the compound.

SMILES	IC50 (PDE10 from pig striatum) [nM]	melting point [°C]	IC50 (human recombinant PDE10A) [nM]
Cc1nc(C2CCCCC2)n2c1c(C)nc1ccc(Cl)cc12 [Example 10, 8-Chloro-1-cyclohexyl-3,4-dimethyl-imidazo(1,5-a)quinoxaline]	10 to 100	228 to 234	
CCCc1nc(C)c2c(N)nc3ccccc3n12 [Example 4, 3-Methyl-1-propyl-imidazo(1,5-a)quinoxalin-4-ylamine]	≥ 100	187 to 188	
CCc1nc(C)c2c(C)nc3ccc(F)cc3n12 [Example 12, 3,4-Dimethyl-1-ethyl-8-fluoro-imidazo(1,5-a)quinoxaline]	≥ 100	139 to 142	
CCc1nc(C)c2c(C)nc3ccc(N4CCCCC4)cc3n12 [Example 17, 3,4-Dimethyl-1-ethyl-8-(piperidin-1-yl)-imidazo(1,5-a)quinoxaline]	10 to 100	132 to 134	
CCCc1nc(C)c2c(C)nc3cc(OC)ccc3n12 [Example 48, 7-Methoxy-3,4-dimethyl-1-propyl-imidazo[1,5-a]quinoxaline]		111 to 117	10 to 100
CCCc1nc(C)c2c(N)nc3ccc(OC)cc3n12 [Example 7, 8-Methoxy-3-methyl-1-propyl-imidazo(1,5-a)quinoxalin-4-ylamine]		201 to 203	10 to 100
CCc1nc(C)c2c(C)nc3ccccc3n12 [Example 11, 3,4-Dimethyl-1-ethyl-imidazo(1,5-a)quinoxaline]	≥ 100	123 to 125	
CCCc1nc(C)c2c(C)nc3ccc(OC)cc3n12 [Example 16, 3,4-Dimethyl-8-methoxy-1-propyl-imidazo(1,5-a)quinoxaline]		99 to 101	10 to 100
CCc1nc(C)c2c(N)nc3ccc(F)cc3n12 [Example 5, 1-Ethyl-8-fluoro-3-methyl-imidazo(1,5-a)quinoxalin-4-ylamine]	≥ 100	238 to 239	
COc1ccc2nc(C)c3c(C)nc(C4CCCCC4)n3c2c1 [Example 43, 1-Cyclohexyl-8-methoxy-3,4-dimethyl-imidazo[1,5-a]quinoxaline]		165 to 169	10 to 100
CCCc1nc(C)c2c(N)nc3ccc(F)cc3n12 [Example 6, 8-Fluoro-3-methyl-1-propyl-imidazo(1,5-a)quinoxalin-4-ylamine]	10 to 100	240 to 243	
CCCc1nc(C)c2c(N)nc3ccc(OCC4CC4)cc3n12 [Example 39, 8-Cyclopropylmethoxy-3-methyl-1-propyl-imidazo[1,5-a]quinoxalin-4-ylamine]		163 to 167	10 to 100
CCCc1nc(C)c2c(C)nc3c(OCC(F)(F)F)cc(OCC(F)(F)F)cc3n12 [Example 46, 3,4-Dimethyl-1-propyl-6,8-bis-(2,2,2-trifluoro-ethoxy)-imidazo[1,5-a]quinoxaline]		200 to 206	≥ 100
